Results reported in ChEMBL document CHEMBL3886473, “Compounds that are ERK inhibitors” (2016).

Molecular target: Mitogen-activated protein kinase 1 (Homo sapiens, UniProt P28482)
Assay: IMAP-FP Assay: Activated ERK2 activity was determined in an IMAP-FP assay (Molecular Devices).

Chain of Mitogen-activated protein kinase 1 (P28482 whole entry): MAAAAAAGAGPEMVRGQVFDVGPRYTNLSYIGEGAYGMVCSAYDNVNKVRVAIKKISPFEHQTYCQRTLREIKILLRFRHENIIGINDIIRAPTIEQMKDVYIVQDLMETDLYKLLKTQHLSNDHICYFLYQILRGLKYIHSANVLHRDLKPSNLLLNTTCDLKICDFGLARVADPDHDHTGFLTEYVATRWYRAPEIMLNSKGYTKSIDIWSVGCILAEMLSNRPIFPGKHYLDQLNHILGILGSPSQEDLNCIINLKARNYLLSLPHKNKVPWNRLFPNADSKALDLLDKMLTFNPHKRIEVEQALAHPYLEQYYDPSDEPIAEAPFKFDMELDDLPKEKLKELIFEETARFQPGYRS

- IC50: 5.2 nM
Compound: COC(=O)Nc1n[nH]c2cc(NC(=O)N[C@H](C)c3ccc(Cl)c(OC)c3)ncc12
